One data set deals with T1, human GLP1 receptor (Homo sapiens, UniProt P43220).
T1 construct: expressed in transfected cells; host or cells: HEK cells, BacMam virus transduction
Nature of the data set: cAMP accumulation assay, functional agonism of human GLP1 receptor. Format: cell-based. Conditions: HEK cells infected with human GLP1 receptor BacMam virus, HTRF cAMP; for Emax: HEK293, read-out: Human GLP-1R agonist cAMP Emax; for EC50: read-out: Human GLP-1R agonist cAMP pEC50 (converted). An outline of the steps: (§1)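 HTRF cAMP read-out: HEK cells expressing GLP1 or GLP2 receptor via 24 h BacMam infection, frozen before use; agonist exposure 45 min, 37° C, HBSS + 0.5 mM IBMX; stopped with detection reagents in lysis buffer.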

In another data set the target is T2, human GLP2 receptor (Homo sapiens, UniProt O95838).
T2 construct: expressed in transfected cells; host or cells: HEK cells, BacMam virus transduction
T2 sequence (O95838 1-553): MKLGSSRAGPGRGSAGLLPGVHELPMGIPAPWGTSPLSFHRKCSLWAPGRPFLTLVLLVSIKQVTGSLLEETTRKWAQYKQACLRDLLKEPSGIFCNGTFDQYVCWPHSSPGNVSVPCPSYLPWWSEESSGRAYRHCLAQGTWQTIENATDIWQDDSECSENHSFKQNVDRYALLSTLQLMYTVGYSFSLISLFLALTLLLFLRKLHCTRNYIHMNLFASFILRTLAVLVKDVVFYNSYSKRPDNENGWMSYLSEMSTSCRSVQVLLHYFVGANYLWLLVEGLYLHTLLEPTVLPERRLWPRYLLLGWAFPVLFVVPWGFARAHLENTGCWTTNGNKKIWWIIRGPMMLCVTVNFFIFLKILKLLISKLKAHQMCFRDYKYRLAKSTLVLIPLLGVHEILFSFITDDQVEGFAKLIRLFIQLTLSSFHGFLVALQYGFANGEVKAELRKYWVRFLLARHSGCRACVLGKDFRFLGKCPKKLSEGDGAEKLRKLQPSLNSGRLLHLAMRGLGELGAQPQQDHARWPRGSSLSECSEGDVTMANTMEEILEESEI
Nature of the data set: cAMP accumulation assay, functional agonism of human GLP2 receptor. Format: cell-based. Particulars: HEK cells infected with human GLP2 receptor BacMam virus, HTRF cAMP; for Emax: HEK293, read-out: Human GLP-2R agonist cAMP Emax; for EC50: read-out: Human GLP-2R agonist cAMP pEC50 (converted). The method, boiled down: as §1

Data set [1] can be described thus: Stability of peptides in rat intestinal fluid (ratIF). Particulars: Sprague Dawley, undiluted rat small intestinal fluid (ratIF).
Experimental: Peptides were tested for in vitro stability in native intestinal fluid obtained from the rat small intestine. Rat Sprague Dawley Small Intestinal Fluid (ratIF) (from Biotrend art. no. RSD-SIF-MI-30ML, undiluted) was preincubated for 15 min at 37° C. and spiked with test and reference item working solutions. Experiments were conducted in duplicate in a non-serial manner. The total incubation volume per replicate was 150 μl. […] All samples and calibration standards (prepared in ratIF) were precipitated by addition of 300 μl precipitant (ACN / 2% acetic acid / 0.2% HFBA, (precipitation regent, PR)) containing internal standards (ISTD) to 150 μl sample. After incubation for 1 h at room temperature all samples were centrifuged for 10 min at 2,200×g (room temperature).
A further data set has as its target T3, mouse GLP2 receptor (Mus musculus, UniProt Q5IXF8).
T3 construct: expressed in transfected cells; host or cells: HEK cells, transient transfection with GeneJuice
T3 sequence (Q5IXF8 1-512): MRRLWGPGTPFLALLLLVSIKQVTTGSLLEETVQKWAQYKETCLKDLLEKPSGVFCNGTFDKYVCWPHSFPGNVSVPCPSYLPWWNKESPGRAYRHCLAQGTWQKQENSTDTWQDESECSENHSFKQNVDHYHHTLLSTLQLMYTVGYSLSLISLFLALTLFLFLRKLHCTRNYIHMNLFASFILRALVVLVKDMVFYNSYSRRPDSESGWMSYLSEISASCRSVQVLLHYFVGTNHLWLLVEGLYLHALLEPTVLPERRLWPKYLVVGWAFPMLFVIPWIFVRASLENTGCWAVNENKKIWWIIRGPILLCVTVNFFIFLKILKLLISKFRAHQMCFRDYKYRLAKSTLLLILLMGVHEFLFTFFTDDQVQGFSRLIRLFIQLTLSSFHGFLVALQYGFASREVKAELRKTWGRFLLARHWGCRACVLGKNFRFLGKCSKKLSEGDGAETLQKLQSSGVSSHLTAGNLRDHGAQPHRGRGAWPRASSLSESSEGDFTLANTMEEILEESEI
In words: cAMP accumulation assay, functional agonism of mouse GLP2 receptor. Format: cell-based. Conditions: HEK cells transiently transfected with mouse GLP2 receptor, HTRF cAMP; for Emax: HEK293, read-out: Mouse GLP-2R agonist cAMP Emax; for EC50: read-out: Mouse GLP-2R agonist cAMP pEC50 (converted). An outline of the steps:
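pEC50 values come from four-parameter fits of HTRF cAMP signal, read after lysis and 1 h RT incubation. Compounds were incubated 45 min at 37 °C with previously frozen, transiently transfected HEK cells (8000/well) in HBSS containing 0.5 mM IBMX.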

Positions of bridges follow the written chain, without caps; N, C: chain ends. Non-standard residues stand in square brackets, D forms with d. Residues, ends and D or L forms follow the SMILES beside them. *: point of attachment. Malonyl(2,2-Me2,histaminyl) = CC(C)(C(=O)NCCc1cnc[nH]1)C(=O)*; Ala(1H-tetrazol-5-yl) = N[C@@H](Cc1nnn[nH]1)C(=O)O; αMePhe(2-F) = C[C@](N)(Cc1ccccc1F)C(=O)O; d(αMeF) = C[C@@](N)(Cc1ccccc1)C(=O)O; αMeL = CC(C)C[C@](C)(N)C(=O)O; Nle = CCCC[C@H](N)C(=O)O; Aib = CC(C)(N)C(=O)O

T1 sequence (P43220 24-463): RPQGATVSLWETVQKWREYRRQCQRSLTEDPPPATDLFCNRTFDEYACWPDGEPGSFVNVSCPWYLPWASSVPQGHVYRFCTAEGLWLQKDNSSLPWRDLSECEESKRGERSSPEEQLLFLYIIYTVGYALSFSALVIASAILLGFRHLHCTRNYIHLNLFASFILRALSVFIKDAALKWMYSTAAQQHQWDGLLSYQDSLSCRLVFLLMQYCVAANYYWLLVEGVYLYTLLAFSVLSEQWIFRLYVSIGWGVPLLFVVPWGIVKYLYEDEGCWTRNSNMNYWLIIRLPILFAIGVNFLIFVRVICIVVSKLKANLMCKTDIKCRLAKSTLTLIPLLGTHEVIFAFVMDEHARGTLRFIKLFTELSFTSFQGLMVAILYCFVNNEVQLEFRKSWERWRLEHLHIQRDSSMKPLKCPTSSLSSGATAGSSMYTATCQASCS

With `CCCC[C@H](NC(=O)[C@H](CCC(=O)O)NC(=O)[C@@H]1CC(=O)NCCCC[C@H](NC(=O)[C@H](CCC(N)=O)NC(=O)C(C)(C)NC(=O)[C@@H](N)Cc2c[nH]cn2)C(=O)N[C@@H](CO)C(=O)N[C@@H](Cc2ccccc2)C(=O)N[C@@H](CO)C(=O)N1)C(=O)N[C@H](Cc1ccccc1)C(=O)N[C@H](C(=O)N[C@@](C)(CC(C)C)C(=O)N[C@@H](CC(C)C)C(=O)N[C@@H](CC(=O)O)C(=O)N[C@H]1CCC(=O)NCCCC[C@@H](C(=O)N[C@@H](CC(=O)O)C(=O)N[C@@H](Cc2ccccc2)C(=O)N[C@H](C(=O)N[C@H]2CCC(=O)NCCCC[C@@H](C(=O)N[C@H](C(=O)N[C@@H](CCCCN)C(N)=O)[C@@H](C)O)NC(=O)[C@H]([C@@H](C)CC)NC(=O)[C@H](CC(C)C)NC(=O)[C@H](Cc3c[nH]c4ccccc34)NC2=O)[C@@H](C)CC)NC(=O)[C@H](C)NC(=O)[C@H](C)NC(=O)[C@H](CCCCN)NC1=O)[C@@H](C)O` [Example 27] (H-H[Aib]QKSFSDE[Nle][dF]T[αMeL]LDEKAAKDFIEWLIKTK-NH2; lactam 4-8, 16-20, 24-28; N-terminus and C-terminus assumed), at human GLP1 receptor, the maximal effect (Emax) came to 97.1% and the EC50 is 0.251 nM. Moreover, at human GLP2 receptor, the maximum response (Emax) was determined as 99.3% and the EC50 was 0.0631 nM. The fraction remaining at 0.5 h in data set [1] was 11%.

Regarding `CCCC[C@H](NC(=O)[C@H](CCC(=O)O)NC(=O)[C@@H]1CC(=O)NCCCC[C@H](NC(=O)[C@H](CC(=O)O)NC(=O)C(C)(C)NC(=O)[C@@H](N)Cc2c[nH]cn2)C(=O)N[C@@H](CO)C(=O)N[C@@](C)(Cc2ccccc2F)C(=O)N[C@@H](CO)C(=O)N1)C(=O)N[C@H](Cc1ccccc1)C(=O)N[C@H](C(=O)N[C@@](C)(CC(C)C)C(=O)N[C@@H](CC(C)C)C(=O)N[C@@H](CC(=O)O)C(=O)N[C@H]1CCC(=O)NCCCC[C@@H](C(=O)N[C@@H](CC(=O)O)C(=O)N[C@@H](Cc2ccccc2)C(=O)N[C@H](C(=O)N[C@H]2CCC(=O)NCCCC[C@@H](C(=O)N[C@H](C(=O)N[C@@H](CCCCN)C(N)=O)[C@@H](C)O)NC(=O)[C@H]([C@@H](C)CC)NC(=O)[C@H](CC(C)C)NC(=O)[C@H](Cc3c[nH]c4ccccc34)NC2=O)[C@@H](C)CC)NC(=O)[C@H](C)NC(=O)[C@H](C)NC(=O)[C@H](CCCCN)NC1=O)[C@@H](C)O` [Example 31] (H-H[Aib]DKS[αMePhe(2-F)]SDE[Nle][dF]T[αMeL]LDEKAAKDFIEWLIKTK-NH2; lactam 4-8, 16-20, 24-28), the values for the Emax at mouse GLP2 receptor, at human GLP1 receptor and at human GLP2 receptor were 102%, 98.3% and 103%, respectively. Moreover, the EC50 at mouse GLP2 receptor was 0.158 nM; at human GLP1 receptor, 0.0158 nM; on human GLP2 receptor, 0.0398 nM. The compound further showed a share remaining at 0.5 h in data set [1] of 24.8%.

In the case of `CCCC[C@H](NC(=O)[C@H](CCC(=O)O)NC(=O)[C@@H]1CC(=O)NCCCC[C@H](NC(=O)[C@H](CC(=O)O)NC(=O)C(C)(C)NC(=O)[C@@H](N)Cc2c[nH]cn2)C(=O)N[C@@H](CO)C(=O)N[C@@H](Cc2ccccc2)C(=O)N[C@@H](CO)C(=O)N1)C(=O)N[C@](C)(Cc1ccccc1)C(=O)N[C@H](C(=O)N[C@@](C)(CC(C)C)C(=O)N[C@@H](CC(C)C)C(=O)N[C@@H](CC(=O)O)C(=O)N[C@H]1CCC(=O)NCCCC[C@@H](C(=O)N[C@@H](CC(=O)O)C(=O)N[C@@H](Cc2ccccc2)C(=O)N[C@H](C(=O)N[C@H]2CCC(=O)NCCCC[C@@H](C(=O)N[C@H](C(=O)N[C@@H](CCCCN)C(N)=O)[C@@H](C)O)NC(=O)[C@H]([C@@H](C)CC)NC(=O)[C@H](CC(C)C)NC(=O)[C@H](Cc3c[nH]c4ccccc34)NC2=O)[C@@H](C)CC)NC(=O)[C@H](C)NC(=O)[C@H](C)NC(=O)[C@H](CCCCN)NC1=O)[C@@H](C)O` [Example 36] (H-H[Aib]DKSFSDE[Nle][d(αMeF)]T[αMeL]LDEKAAKDFIEWLIKTK-NH2; lactam 4-8, 16-20, 24-28; N-terminus and C-terminus assumed), on human GLP1 receptor, the Emax turned out to be 97.1% and the EC50 is 0.0316 nM. Moreover, on human GLP2 receptor, the Emax came to 104% and the EC50 was 0.0316 nM. The same compound displayed a share remaining at 0.5 h in data set [1] of 23.3%.

Take `CCCC[C@H](NC(=O)[C@H](CCC(=O)O)NC(=O)[C@@H]1CC(=O)NCCCC[C@H](NC(=O)[C@H](CC(=O)O)NC(=O)C(C)(C)NC(=O)[C@@H](N)Cc2c[nH]cn2)C(=O)N[C@@H](CO)C(=O)N[C@@H](Cc2ccccc2)C(=O)N[C@@H](CO)C(=O)N1)C(=O)N[C@H](Cc1ccccc1)C(=O)N[C@H](C(=O)N[C@@](C)(CC(C)C)C(=O)N[C@@H](CC(C)C)C(=O)N[C@@H](CC(=O)O)C(=O)N[C@H]1CCC(=O)NCCCC[C@@H](C(=O)N[C@@H](CC(=O)O)C(=O)N[C@@H](Cc2ccccc2)C(=O)N[C@H](C(=O)N[C@H]2CCC(=O)NCCCC[C@@H](C(=O)N[C@H](C(=O)N3CCC[C@H]3C(N)=O)[C@@H](C)O)NC(=O)[C@H]([C@@H](C)CC)NC(=O)[C@H](CC(C)C)NC(=O)[C@H](Cc3c[nH]c4ccccc34)NC2=O)[C@@H](C)CC)NC(=O)[C@H](C)NC(=O)[C@H](C)NC(=O)[C@H](CCCCN)NC1=O)[C@@H](C)O` [Example 29] (H-H[Aib]DKSFSDE[Nle][dF]T[αMeL]LDEKAAKDFIEWLIKTP-NH2; lactam 4-8, 16-20, 24-28 (inferred); C-terminus assumed): the maximal effect (Emax) at mouse GLP2 receptor was found to be 100%; at human GLP1 receptor, 96.2%; at human GLP2 receptor, 103%. Also, the EC50 on mouse GLP2 receptor is 5.01 nM; on human GLP1 receptor, 0.0501 nM; on human GLP2 receptor it was 0.0316 nM. Also, the share remaining at 0.5 h in data set [1] was 41.3%.

In the case of `CCCC[C@H](NC(=O)[C@H](CCC(=O)O)NC(=O)[C@@H]1CC(=O)NCCCC[C@H](NC(=O)[C@H](Cc2nn[nH]n2)NC(=O)C(C)(C)C(=O)NCCc2c[nH]cn2)C(=O)N[C@@H](CO)C(=O)N[C@@](C)(Cc2ccccc2F)C(=O)N[C@@H](CO)C(=O)N1)C(=O)N[C@H](Cc1ccccc1)C(=O)N[C@H](C(=O)N[C@@](C)(CC(C)C)C(=O)N[C@@H](CC(C)C)C(=O)N[C@@H](CC(=O)O)C(=O)N[C@H]1CCC(=O)NCCCC[C@@H](C(=O)N[C@@H](CC(=O)O)C(=O)N[C@@H](Cc2ccccc2)C(=O)N[C@H](C(=O)N[C@H]2CCC(=O)NCCCC[C@@H](C(=O)N[C@H]3CCC(=O)NCCCC[C@@H](C(N)=O)NC(=O)[C@H]([C@@H](C)O)NC(=O)[C@H]([C@@H](C)CC)NC(=O)[C@H](CCCCN)NC3=O)NC(=O)[C@H]([C@@H](C)CC)NC(=O)[C@H](CC(C)C)NC(=O)[C@H](Cc3c[nH]c4ccccc34)NC2=O)[C@@H](C)CC)NC(=O)[C@H](C)NC(=O)[C@H](C)NC(=O)[C@H](CCCCN)NC1=O)[C@@H](C)O` [Example 71] ({Malonyl(2,2-Me2,histaminyl)}-[Ala(1H-tetrazol-5-yl)]KS[αMePhe(2-F)]SDE[Nle][dF]T[αMeL]LDEKAAKDFIEWLIKEKITK-NH2; lactam 2-6, 14-18, 22-26, 27-31 (inferred); C-terminus assumed), the maximum response (Emax) at mouse GLP2 receptor was 89.7%; at human GLP1 receptor, 98.2%; on human GLP2 receptor it was 103%. In addition, the EC50 at mouse GLP2 receptor was 2 nM; on human GLP1 receptor, 0.0251 nM; on human GLP2 receptor, 0.0251 nM. Moreover, the share remaining at 0.5 h in data set [1] amounted to 73.8%.

(Values after patent US20240270809A1, “ORAL GLP RECEPTOR AGONISTS” (priority 2020, published 2024).)
